These results are taken from US20040014209A1, “Compositions and methods for modulating cell differentiation” (priority 2002, published 2004).

The target in the experiment is T1, Wnt8 (Xenopus laevis, UniProt P28026).
T1 construct: expressed in transfected cells; host or cells: Xenopus laevis embryos (mRNA injection at the two-cell stage), animal caps isolated at stage 9
T1 sequence (P28026 23-358): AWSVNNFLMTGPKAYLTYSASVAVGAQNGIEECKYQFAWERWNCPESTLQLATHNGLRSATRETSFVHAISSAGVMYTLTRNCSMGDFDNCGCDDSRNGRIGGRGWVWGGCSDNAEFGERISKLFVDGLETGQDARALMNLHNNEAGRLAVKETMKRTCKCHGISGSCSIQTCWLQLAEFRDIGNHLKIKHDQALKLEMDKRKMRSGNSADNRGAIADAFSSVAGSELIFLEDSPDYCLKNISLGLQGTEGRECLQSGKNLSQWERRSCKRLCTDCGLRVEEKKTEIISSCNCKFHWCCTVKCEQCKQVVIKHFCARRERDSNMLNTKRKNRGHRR
The experiment can be described thus: Block of Wnt8 induction of Siamois in animal caps. Format: cell-based. Particulars: RT-PCR at stage 10.5. As to the method:
FIG. 6. dkk-1 and crescent, but not frzb, induce cardiac specific gene expression in noncardiogenic tissue. (A) mRNAs encoding various Wnt and BMP antagonists were injected equatorially into ventral blastomeres at the four-cell stage. Ventral marginal zone (VMZ) tissue was then explanted from Xenopus laevis at stage 10 and cultured until analyzed by RT-PCR for gene expression at stage 30 (see Materials and Methods). (B) Injection of dkk-1 or crescent induced both markers of cardiac mesoderm (Tbx5 and Nkx2.5) and heart muscle-specific genes (cardiac isoform of troponin-I, Tnlc, and myosin heavy chain-α, MHCα) in VMZ tissue. frzb, in contrast, induced muscle actin (m. actin), which is primarily a skeletal muscle marker, but not cardiac specific gene expression. […] Wnt8 and Wnt antagonist mRNAs were injected into the animal region of two-cell-stage embryos and caps were isolated at stage 9, cultured, and processed for RT-PCR at stage 10.5 (F). […] EF1α expression is shown as a control for the RT reaction in all cases.
The reason for the difference in doses of dkk-1 and crescent mRNA required to induce muscle actin and the cardiac-specific markers was explored further by evaluating their relative ability to block Siamois induction by Wnt8 (FIG. 6F, G). […]

As for dkk-1, the “Wnt8 induction of Siamois” value is reported as “block Wnt8 induction of Siamois”.
